Data published in patent publication US12453712B2, “Antitumoral use of cabazitaxel” (Sanofi Mature IP, priority 2009, dated 2025).
Read-outs that look alike come from different tables or passages of the source.

What was measured:
[1] = test system: castration resistant metastatic prostate cancer; assay: Randomized clinical study of cabazitaxel vs mitoxantrone, each with prednisone or prednisolone: efficacy; assay type: in vivo, human
Description: A clinical study was performed wherein patients received either treatment with cabazitaxel or the reference treatment based on mitoxantrone each combined with prednisone or prednisolone.
More specifically, patients over 18 years of age with metastatic castration resistant metastatic prostate cancer either measurable by RECIST criteria or non-measurable disease with rising PSA levels or appearance of new lesions, ECOG (Eastern Cooperative Oncology Group) performance stage 0-2, and adequate organ function (patients had to have neutrophils >1,500 cells/mm^3, platelets >100,000 cells/mm^3, hemoglobin >10 g/dL, creatinine <1.5×upper limit of normal (ULN), total bilirubin <1×ULN, AST <1.5×ULN, and ALT <1.5×ULN) who had had prior hormone therapy, chemotherapy, and radiotherapy, but had progressive during or after docetaxel treatment (cumulative dose ≥225 mg/m^2) were randomized to 10 mg/day of prednisone with either mitoxantrone 12 mg/m^2 or cabazitaxel 25 mg/m^2, both administered every 3 weeks.
Patients with a history of congestive heart failure, or myocardial infarction within the last 6 months, or patients with uncontrolled cardiac arrhythmias, angina pectoris, and/or hypertension were not included in the study.
720 patients were planned to be included in the clinical study: 360 in each cabazitaxel+prednisone and mitoxantrone+prednisone group. Seven hundred and fifty-five patients (755) (median age 68; 84% white) were actually enrolled, 378 in the cabazitaxel and prednisone/prednisolone group and 377 in the mitoxantrone and prednisone/prednisolone group. The maximal number of treatment cycles was 10 for cabazitaxel and 10 for mitoxantrone. The median number of treatment cycles was 6 for cabazitaxel and 4 for mitoxantrone. The median prior dose of docetaxel treatment was 576 mg/m^2 for the cabazitaxel group and 529 mg/m^2 for the mitoxantrone group. Median follow-up was 12.8 months.
The measurements of the results are performed via the same tests as at inclusion. MRI and spiral computed tomographic (CT) scans are preferably used.
The results are evaluated according to the following criteria (cf RECIST guideline): • overall survival (OS): the time from inclusion to the study to the date of death complete response (CR): disappearance of the lesions • partial response (PR): at least 30% reduction of the largest diameter of the lesion progression (PD): at least 20% increase in the sum of the largest diameter of the lesion or appearance of one or more new lesions • stable disease (SD): reduction of the tumour insufficient to be included in PR and increase of the tumour insufficient to be included in PD.
The confirmations of the measurements are made at least 4 weeks after the response criterion has been established for the first time.
The progression-free survival (PFS) is the time from inclusion in the study and the date of progression or death when the progression is either an increase of the PSA, or of the tumour, or of the pain.

[2] = test system: breast cancer; conditions: phase II, cited from earlier work

CO[C@H]1C(=O)[C@]2(C)[C@@H](OC)C[C@H]3OC[C@@]3(OC(C)=O)[C@H]2[C@H](OC(=O)c2ccccc2)[C@]2(O)C[C@H](OC(=O)[C@H](O)[C@@H](NC(=O)OC(C)(C)C)c3ccccc3)C(C)=C1C2(C)C [cabazitaxel, 4α-acetoxy-2α-benzoyloxy-5β,20-epoxy-1β-hydroxy-7β,10β-dimethoxy-9-oxo-11-taxen-13α-yl (2R,3S)-3-tert-butoxycarbonyl-amino-2-hydroxy-3-phenylpropionate]
Overall survival Hazard ratio (95% CI) ([1]; CbzP vs MP, intention-to-treat): 0.70
PFS Hazard ratio (95% CI) ([1]; CbzP vs MP, intention-to-treat): 0.74
reduction in risk of death ([1]; cabazitaxel vs mitoxantrone, corresponding to hazard ratio 0.70): 30%
Discontinuation of study treatment for disease progression, (%) ([1]; intention-to-treat): (47.6) %
Discontinuation of study treatment for disease progression, no. ([1]; intention-to-treat, N = 377 mitoxantrone, N = 378 cabazitaxel): 180
Overall survival Median ([1]; intention-to-treat, 25 mg/m^2 cabazitaxel or 12 mg/m^2 mitoxantrone every 3 weeks with prednisone): 15.1 months
PFS Median ([1]; intention-to-treat, earliest progression in tumor, PSA or pain): 2.8 months
response level ([2]; prior taxanes and anthracyclines as adjuvant): 14.6%
response level ([2]; second-line treatment): 9.5%
